Measured values taken from patent US20260109690A1, “HDAC6 INHIBITORS AND METHOD OF THEIR USE” (Baerenkraft Therapeutics, LLC., priority 2024, published 2026).
Like-named read-outs stand apart in the source and are kept apart here.

Legend:
HDAC9 = HDAC9 (Homo sapiens, UniProt Q9UKV0); test: HDAC selectivity panel: HDAC9; type: biochemical
[1] = Oral bioavailability and brain/CSF uptake study of compound I-8; type: in vivo, male Swiss albino mice
Procedure: Compound I-8 was evaluated for bioavailability, pharmacokinetics and brain/csf to plasma distribution in mouse plasma following oral and intravenous administration of compound I-8 in male Swiss albino mouse.
A total of 24 male Swiss albino mouse were allotted for the study, Animals were allotted to 2 groups containing 12 mice/group, on day of dosing all the animals were fasted 3 hours before dosing. The test formulation was administered as a single dose by intravenous and oral route via tail vein and oral gavage needle at a dose of 1 and 5 mg/kg with a dose volume of 5 and 10 mL/kg, respectively.
Approximately 0.1 mL of blood sample from each animal was collected via retro orbital at predetermined time points (3 animals/timepoint) in pre-labeled Eppendorf tubes containing anticoagulant. After blood collection at 2 h, 4 h and 6 h, CSF and whole brain was withdrawn, and brain tissue was homogenized as a terminal sampling. Blood samples were centrifuged at 10000 rpm for 5 min under refrigeration (2-4° C.) within 0.5 h to obtain plasma. The separated plasma samples were collected in pre labeled tubes within 60 min of separation and stored at −20° C. up to 24 h. Post 24 h sample collection, all plasma samples were transferred to deep freezer custodian to store below or at −70° C. until shipment.
Brain tissues were blotted and dried and then transferred to 15 mL falcon tubes. Initially all tissue samples were stored at −20±3° C. Later all brain tissue samples were homogenized with PBS at 1:4 ratio and the Brain homogenate was transferred to deep freezer (−70±10° C.) and stored until bioanalysis.
Mouse plasma, CSF and Brain homogenate concentrations were analyzed to quantify compound I-8 using a fit-for purpose LC-MS/MS method with LLOQ of 0.98 ng/mL. The PK parameters were evaluated using Phoenix WinNonlin® Ent-Version 8.3 by non-compartmental analysis.

HDAC3 = HDAC3 (Homo sapiens, UniProt O15379); test: HDAC selectivity panel: HDAC3; type: biochemical
Sequence of HDAC3 (O15379 whole entry, species assumed): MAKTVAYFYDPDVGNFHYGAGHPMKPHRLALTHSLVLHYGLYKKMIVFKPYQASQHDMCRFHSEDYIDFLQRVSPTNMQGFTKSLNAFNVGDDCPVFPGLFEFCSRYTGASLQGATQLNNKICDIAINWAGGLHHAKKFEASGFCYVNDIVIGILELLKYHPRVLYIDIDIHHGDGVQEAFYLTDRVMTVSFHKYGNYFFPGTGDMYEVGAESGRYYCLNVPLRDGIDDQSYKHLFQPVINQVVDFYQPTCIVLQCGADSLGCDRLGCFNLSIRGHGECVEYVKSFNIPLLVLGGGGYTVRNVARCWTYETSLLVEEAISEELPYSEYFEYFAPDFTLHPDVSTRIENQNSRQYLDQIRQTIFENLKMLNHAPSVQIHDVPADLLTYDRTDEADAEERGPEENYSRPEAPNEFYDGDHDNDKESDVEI
Sequence of HDAC3 (Q9Y618 395-489 partner limits assumed, species assumed): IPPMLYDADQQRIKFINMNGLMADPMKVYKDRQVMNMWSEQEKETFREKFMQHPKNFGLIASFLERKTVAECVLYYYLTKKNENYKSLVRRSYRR

HDAC8 = target: T1, HDAC8 (Homo sapiens, UniProt Q9BY41); test: HDAC selectivity panel: HDAC8; type: biochemical
T1 sequence (Q9BY41 1-377): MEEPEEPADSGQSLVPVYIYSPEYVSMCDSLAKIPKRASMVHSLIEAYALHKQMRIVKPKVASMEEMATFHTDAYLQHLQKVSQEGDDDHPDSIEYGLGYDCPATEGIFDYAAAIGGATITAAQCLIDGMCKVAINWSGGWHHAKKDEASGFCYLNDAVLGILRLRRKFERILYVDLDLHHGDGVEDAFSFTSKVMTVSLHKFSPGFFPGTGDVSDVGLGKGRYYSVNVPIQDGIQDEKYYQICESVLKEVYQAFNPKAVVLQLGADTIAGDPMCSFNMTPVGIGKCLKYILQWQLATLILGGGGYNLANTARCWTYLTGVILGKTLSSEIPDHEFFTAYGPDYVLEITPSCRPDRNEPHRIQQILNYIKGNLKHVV

Tg2576 AD Disease Mice [2] = test: Tg2576 study: open field test; type: in vivo; details: for Open Field Test time spent in Central zone / Open Field Test time spent in Peripheral zone: G3 Tg2576 mice
Procedure: (§1) Mice were weighed and randomized into groups. All the test formulations were freshly administered to respective animals of each group as per body weight. Basal behavior of the animals was recorded and analyzed in open field, Y-Maze, and EPM. Post basal behavior, animals were treated with compound I-16 for the duration of 3 months (i.e., from 6 months until 9 months). During the treatment duration, animals were subjected to different behavioral tests such as OFT, Y-maze, and EPM at 7, 8 and 9 months. At the end of experiments (i.e., at 9 months) animals were subjected to Morris water maze test.
Prior to the treatment initiation at […], animals were subjected to open field test. […] The total distance travelled, and velocity were quantified using an automated video tracking software Ethovision XT for the duration of 10 minutes. A camera, located directly above the centre of the open field, records the session. Locomotor activities were expressed as the total distance travelled and velocity.

[3] = Tg2576 study: body weight; type: in vivo; details: G3 Tg2576 mice, 50 mg/kg (80 mg/kg from day 36) p.o., in g (unit assumed)
Procedure: Compound I-16 (free base; purity of 98.77%) was tested in a vehicle of PEG 400 (30%), Tween 80 (2%), and water (68%) at a concentration of […]. Dose formulations were prepared every day prior to dose administration. Oral dosages of 50 mg/kg were used unless otherwise indicated. 80 mg/kg doses were similarly prepared at a concentration of 8 mg/mL Male mice aged 6 months were used. 30 total animals were used with 10 animals in each group and 3 groups total. Groups were separated according to the following parameters.
as §1

Tg2576 AD Disease Mice [4] = test: Tg2576 study: elevated plus maze; type: in vivo; details: for Elevated Plus Maze time spent in Closed arms / Elevated Plus Maze time spent in Open arms: G3 Tg2576 mice
Procedure: as §1
Animals were subjected to elevated plus maze to evaluate anxiety-like behavior. Animals were placed in the centre of the arena with two open and two closed arms facing towards closed arms and allowed to explore the arena for a duration of 5 minutes. Animal behavior was video recorded using overhead video recording camera. Total time spent in the closed and open arms were quantified using automated animal tracking software Ethovision XT.

[5] = male, Swiss albino, mouse, plasma, G1, intravenous 1 mg/kg
[6] = male, Swiss albino, mouse, plasma, G2, oral 5 mg/kg
[7] = male, Swiss albino, G1, intravenous 1 mg/kg, mouse plasma
[8] = male, Swiss albino, G2, oral 5 mg/kg, mouse plasma
[9] = G3 Tg2576 AD disease mice, 50 mg/kg
[10] = 50 mg/kg then 80 mg/kg from day 36 p.o., 8th months
[11] = 50 mg/kg then 80 mg/kg from day 36 p.o., 9th months
[12] = 6th months (Basal, before treatment)

Sequence of HDAC9 (Q9UKV0 whole entry, species assumed): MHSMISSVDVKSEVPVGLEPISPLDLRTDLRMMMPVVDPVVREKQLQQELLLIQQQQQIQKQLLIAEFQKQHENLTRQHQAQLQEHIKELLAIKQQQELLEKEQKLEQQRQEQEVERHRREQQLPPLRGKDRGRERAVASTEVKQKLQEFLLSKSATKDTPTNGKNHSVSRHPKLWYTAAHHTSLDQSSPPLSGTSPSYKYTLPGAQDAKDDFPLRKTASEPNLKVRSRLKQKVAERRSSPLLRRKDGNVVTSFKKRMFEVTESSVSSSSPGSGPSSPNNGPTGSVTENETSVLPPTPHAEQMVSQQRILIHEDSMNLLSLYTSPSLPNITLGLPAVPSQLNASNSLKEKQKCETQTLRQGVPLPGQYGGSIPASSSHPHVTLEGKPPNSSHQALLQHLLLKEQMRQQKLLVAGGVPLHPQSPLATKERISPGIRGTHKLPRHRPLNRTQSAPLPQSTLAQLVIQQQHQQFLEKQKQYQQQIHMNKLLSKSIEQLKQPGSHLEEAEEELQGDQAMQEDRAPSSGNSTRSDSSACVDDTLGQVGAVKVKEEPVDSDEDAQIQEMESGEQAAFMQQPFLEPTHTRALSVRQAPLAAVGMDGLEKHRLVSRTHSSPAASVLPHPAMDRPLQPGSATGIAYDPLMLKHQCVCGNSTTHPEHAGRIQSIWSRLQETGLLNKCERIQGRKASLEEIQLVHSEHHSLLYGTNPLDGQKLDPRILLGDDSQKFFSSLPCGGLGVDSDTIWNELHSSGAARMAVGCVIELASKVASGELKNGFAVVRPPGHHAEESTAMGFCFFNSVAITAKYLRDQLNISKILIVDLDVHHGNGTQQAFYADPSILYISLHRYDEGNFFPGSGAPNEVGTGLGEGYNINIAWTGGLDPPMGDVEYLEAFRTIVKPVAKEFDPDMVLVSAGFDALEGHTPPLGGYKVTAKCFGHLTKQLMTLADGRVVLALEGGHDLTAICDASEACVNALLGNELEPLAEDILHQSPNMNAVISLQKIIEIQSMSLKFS

For `CC1CN(Cc2ccc(Nc3nccc(-c4ccc(C(=O)NO)cc4)n3)cc2F)CCO1` (racemic) [Compound I-8, 4-(2-((3-fluoro-4-((2-methylmorpholino)methyl)phenyl)amino)pyrimidin-4-yl)-N-hydroxybenzamide], the IC50 (HDAC9) was 22000 nM, the “Steady state and central compartment volume of distribution” value ([1]; intravenous 1 mg/kg) was “very high” and the clearance ([1]; male, Swiss albino, mouse, plasma, iv, 1 mg/kg, G1, intravenous 1 mg/kg) was roughly 328 mL/min/kg. For the same molecule, the Vd ([1]; male, Swiss albino, mouse, plasma, iv, 1 mg/kg, G1, intravenous 1 mg/kg, read-out: Vd) was 171 L/kg, the Vd ([1]; male, Swiss albino, mouse, plasma, iv, 1 mg/kg, G1, intravenous 1 mg/kg, read-out: Vss) was 188 L/kg and the MRT [1, 5] was 3.28 h. The half-life [1, 5] was 6.03 h, the MRT [1, 6] was 4.75 h and the Tmax [1, 6] was 8 h. The bioavailability ([1]; male, Swiss albino, mouse, plasma, G2, oral 5 mg/kg vs intravenous 1 mg/kg, read-out: % F (oral bioavailability)) was 53%, the AUC(0-inf) [1, 7] was 50.8 ng·h/mL and the AUC(0-t) [1, 7] was 27.1 ng·h/mL. The C0 [1, 7] was 27.3 ng/mL, the AUC(0-t) [1, 8] was 72.3 ng·h/mL and the Cmax [1, 8] was 18.3 ng/mL. The “lag phase in absorption” value ([1]; oral 5 mg/kg) was “no lag phase in absorption”, the systemic availability ([1]; oral 5 mg/kg) was “moderate to high systemic availability” and the IC50 (HDAC3) was 990 nM. The IC50 (HDAC8) was 102 nM.

For `C[C@@H]1CN(Cc2ccc(Nc3nccc(-c4ccc(C(=O)NO)cc4)n3)cc2F)CCO1` [Compound I-16, (R)-4-(2-((3-fluoro-4-((2-methylmorpholino)methyl)phenyl)amino)pyrimidin-4-yl)-N-hydroxybenzamide], the “Open Field Test: total distance, velocity, time spent in central and peripheral zone compared to G2 (Tg2576 + vehicle)” value (Tg2576 AD Disease Mice [2]; [9]) was “did not show any significant difference”, the “Open Field Test time spent in Central zone” value (Tg2576 AD Disease Mice [2]; 50 mg/kg p.o., 7th months) was 25.12 ± 12.39 and the “Open Field Test time spent in Peripheral zone” value (Tg2576 AD Disease Mice [2]; 50 mg/kg p.o., 7th months) was 574.88 ± 12.39. For the same molecule, the “Open Field Test time spent in Central zone” value (Tg2576 AD Disease Mice [2]; [10]) was 79.09 ± 28.86, the “Open Field Test time spent in Peripheral zone” value (Tg2576 AD Disease Mice [2]; [10]) was 520.91 ± 28.86 and the “Open Field Test time spent in Central zone” value (Tg2576 AD Disease Mice [2]; [11]) was 61.69 ± 12.36. The “Open Field Test time spent in Peripheral zone” value (Tg2576 AD Disease Mice [2]; [11]) was 538.31 ± 12.36, the “Open Field Test time spent in Central zone” value (Tg2576 AD Disease Mice [2]; [12]) was 57.11 ± 12.95 and the “Open Field Test time spent in Peripheral zone” value (Tg2576 AD Disease Mice [2]; [12]) was 537.81 ± 12.63. It also gave a Body weight ([3]; Day 0) of 28.08 ± 0.84, a Body weight ([3]; Day 4) of 27.31 ± 0.52 and a Body weight ([3]; Day 7) of 26.85 ± 0.66. For the same molecule, the Body weight ([3]; Day 14) was 28.27 ± 0.87, the Body weight ([3]; Day 21) was 27.65 ± 0.86 and the Body weight ([3]; Day 28) was 28.23 ± 1.02. The Body weight ([3]; Day 35) was 28.88 ± 0.55, the Body weight ([3]; Day 42) was 28.35 ± 0.63 and the Body weight ([3]; Day 49) was 28.76 ± 0.76. The Body weight ([3]; Day 56) was 27.77 ± 0.67, the Body weight ([3]; Day 63) was 28.72 ± 1.03 and the Body weight ([3]; Day 70) was 29.54 ± 0.72. The Body weight ([3]; Day 77) was 29.16 ± 0.71, the Body weight ([3]; Day 84) was 29.14 ± 0.86 and the Body weight ([3]; Day 91) was 29.41 ± 0.78. The “Elevated Plus Maze: time spent in open and closed arms compared to G2 (Tg2576 + vehicle)” value (Tg2576 AD Disease Mice [4]; [9]) was “did not show any significant difference”, the “Elevated Plus Maze time spent in Closed arms” value (Tg2576 AD Disease Mice [4]; 50 mg/kg p.o., 7th months) was 165.48 ± 28.89 and the “Elevated Plus Maze time spent in Open arms” value (Tg2576 AD Disease Mice [4]; 50 mg/kg p.o., 7th months) was 73.82 ± 27.58. The “Elevated Plus Maze time spent in Closed arms” value (Tg2576 AD Disease Mice [4]; [10]) was 245.27 ± 12.41, the “Elevated Plus Maze time spent in Open arms” value (Tg2576 AD Disease Mice [4]; [10]) was 54.73 ± 12.41 and the “Elevated Plus Maze time spent in Closed arms” value (Tg2576 AD Disease Mice [4]; [11]) was 241.46 ± 11.16. The “Elevated Plus Maze time spent in Open arms” value (Tg2576 AD Disease Mice [4]; [11]) was 58.55 ± 11.16, the “Elevated Plus Maze time spent in Closed arms” value (Tg2576 AD Disease Mice [4]; [12]) was 110.86 ± 16.69 and the “Elevated Plus Maze time spent in Open arms” value (Tg2576 AD Disease Mice [4]; [12]) was 82.94 ± 14.23.
